# In ChEMBL document CHEMBL4371034, “Design, synthesis, biological evaluation, structure-activity relationship, and toxicity of clinafloxacin-azole conjugates as novel antitubercular agents” (Bioorg Med Chem, 2019):
# Active and inactive are the calls of the source. No cut-off for these calls is given here.
# What was measured:
# [1] = target: Voltage-gated inwardly rectifying potassium channel KCNH2 (Homo sapiens, UniProt Q12809); experiment: Inhibition of human ERG
# Escherichia coli [2] = experiment: Antibacterial activity against duck Escherichia coli clinical isolates measured after 120 days of sample dissolution by serial dilution method; format: functional
# Staphylococcus aureus [3] = experiment: Antibacterial activity against Staphylococcus aureus ATCC 29213 measured after 120 days of sample dissolution by serial dilution method; format: functional
# HeLa = experiment: Cytotoxicity against human HeLa cells by Celltiter-Glo luminescence assay; format: cell-based
# [4] = tested on: Mycobacterium tuberculosis; experiment: Antitubercular activity against Mycobacterium tuberculosis H37Rv after 6 days by […]; format: functional; details: 144 h
# Pseudomonas aeruginosa [5] = experiment: Antibacterial activity against Pseudomonas aeruginosa PS1.0050 assessed as diameter of zone of inhibition at 80 ug/ml after 18 hrs by agar diffusion method; format: functional; details: for zone of inhibition at 80 µg/mL: PS1.0050, 18 h, read-out: DIZ
# [6] = Cytotoxicity against human HeLa cells assessed as growth inhibition at 20 uM by Celltiter-Glo luminescence assay; format: cell-based; details: read-out: GI
# Salmonella [7] = experiment: Antibacterial activity against Salmonella S1.1152 measured after 120 days of sample dissolution by serial dilution method; format: functional
# Escherichia coli [8] = experiment: Antibacterial activity against duck Escherichia coli clinical isolates assessed as diameter of zone of inhibition at 80 ug/ml after 18 hrs by agar diffusion method; format: functional; details: for zone of inhibition at 80 µg/mL: read-out: DIZ
# [9] = tested on: Mycobacterium tuberculosis; experiment: Antitubercular activity against Mycobacterium tuberculosis H37Rv assessed as growth inhibition at 20 uM after 6 days by […]; format: functional; details: 144 h, read-out: GI
# Salmonella [10] = experiment: Antibacterial activity against Salmonella S1.1152 assessed as diameter of zone of inhibition at 80 ug/ml after 18 hrs by agar diffusion method; format: functional; details: for zone of inhibition at 80 µg/mL: S1.1152, 18 h, read-out: DIZ
# Pseudomonas aeruginosa [11] = experiment: Antibacterial activity against Pseudomonas aeruginosa PS1.0050 measured after 120 days of sample dissolution by serial dilution method; format: functional
# Staphylococcus aureus [12] = experiment: Antibacterial activity against Staphylococcus aureus ATCC 29213 assessed as diameter of zone of inhibition at 80 ug/ml after 18 hrs by agar diffusion method; format: functional; details: for zone of inhibition at 80 µg/mL: ATCC 29213, 18 h, read-out: DIZ
# Sequence of Voltage-gated inwardly rectifying potassium channel KCNH2 (Q12809 whole entry): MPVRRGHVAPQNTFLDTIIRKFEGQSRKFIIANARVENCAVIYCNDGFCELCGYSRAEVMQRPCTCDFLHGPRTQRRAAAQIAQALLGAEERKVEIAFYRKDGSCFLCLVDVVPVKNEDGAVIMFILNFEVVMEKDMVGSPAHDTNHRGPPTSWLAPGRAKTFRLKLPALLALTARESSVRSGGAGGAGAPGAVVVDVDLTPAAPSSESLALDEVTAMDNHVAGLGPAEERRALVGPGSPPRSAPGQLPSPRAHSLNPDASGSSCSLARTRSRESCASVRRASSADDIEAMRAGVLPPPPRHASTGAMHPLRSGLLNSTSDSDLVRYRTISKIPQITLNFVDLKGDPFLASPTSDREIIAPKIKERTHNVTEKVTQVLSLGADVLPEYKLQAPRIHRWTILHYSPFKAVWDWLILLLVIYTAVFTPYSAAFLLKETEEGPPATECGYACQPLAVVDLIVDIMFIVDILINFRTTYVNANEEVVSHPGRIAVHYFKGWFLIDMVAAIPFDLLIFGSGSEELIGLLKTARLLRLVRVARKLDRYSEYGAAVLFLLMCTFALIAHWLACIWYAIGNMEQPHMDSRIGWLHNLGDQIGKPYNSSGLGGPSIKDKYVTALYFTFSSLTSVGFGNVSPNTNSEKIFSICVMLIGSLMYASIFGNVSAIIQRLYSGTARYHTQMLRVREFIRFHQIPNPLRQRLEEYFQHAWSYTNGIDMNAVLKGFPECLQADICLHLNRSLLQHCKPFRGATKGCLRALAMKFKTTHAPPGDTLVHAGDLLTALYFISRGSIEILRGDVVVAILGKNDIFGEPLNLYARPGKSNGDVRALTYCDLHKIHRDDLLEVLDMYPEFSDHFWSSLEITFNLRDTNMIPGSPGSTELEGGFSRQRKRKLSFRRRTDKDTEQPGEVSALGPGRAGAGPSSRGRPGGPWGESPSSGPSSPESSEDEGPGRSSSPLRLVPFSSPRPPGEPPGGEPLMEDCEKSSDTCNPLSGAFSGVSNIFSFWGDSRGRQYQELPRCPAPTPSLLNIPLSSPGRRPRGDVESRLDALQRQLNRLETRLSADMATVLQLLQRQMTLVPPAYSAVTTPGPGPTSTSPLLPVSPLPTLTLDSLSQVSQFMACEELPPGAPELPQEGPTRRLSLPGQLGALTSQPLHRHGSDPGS
compound,measurement,setting,value
O=C(CCn1cccn1)NC1CCN(c2c(F)cc3c(=O)c(C(=O)O)cn(C4CC4)c3c2Cl)C1 (stereo unspecified),IC50,[1],> 1000 nM
O=C(CCn1nccn1)NC1CCN(c2c(F)cc3c(=O)c(C(=O)O)cn(C4CC4)c3c2Cl)C1 (stereo unspecified),IC50,[1],> 1000 nM
Nc1nnc(SCC(=O)NC2CCN(c3c(F)cc4c(=O)c(C(=O)O)cn(C5CC5)c4c3Cl)C2)s1 (stereo unspecified),MIC,Escherichia coli [2],> 16 µg/mL
same,MIC,Staphylococcus aureus [3],8 µg/mL
same,IC50,HeLa,> 20000 nM
same,MIC,[4],0.66 µM
same,zone of inhibition at 80 µg/mL,Pseudomonas aeruginosa [5],15 mm
same,inhibition at 20 µM,[6],-11.2%
same,MIC,Salmonella [7],16 µg/mL
same,zone of inhibition at 80 µg/mL,Escherichia coli [8],12 mm
same,inhibition of growth at 20 µM,[9],99%
same,IC50,[1],> 1000 nM
same,zone of inhibition at 80 µg/mL,Salmonella [10],12 mm
same,MIC,Pseudomonas aeruginosa [11],4 µg/mL
same,zone of inhibition at 80 µg/mL,Staphylococcus aureus [12],12 mm
Nc1nnc(SCCC(=O)NC2CCN(c3c(F)cc4c(=O)c(C(=O)O)cn(C5CC5)c4c3Cl)C2)s1 (stereo unspecified),IC50,HeLa,> 20000 nM
same,MIC,[4],3.9 µM
same,diameter of the inhibition zone (DIZ),Pseudomonas aeruginosa [5],inactive
same,inhibition at 20 µM,[6],-21.2%
same,diameter of the inhibition zone (DIZ),Escherichia coli [8],inactive
same,inhibition of growth at 20 µM,[9],95.8%
same,IC50,[1],> 1000 nM
same,diameter of the inhibition zone (DIZ),Salmonella [10],inactive
same,diameter of the inhibition zone (DIZ),Staphylococcus aureus [12],inactive
O=C(Cn1ccnn1)NC1CCN(c2c(F)cc3c(=O)c(C(=O)O)cn(C4CC4)c3c2Cl)C1 (stereo unspecified),MIC,Escherichia coli [2],> 16 µg/mL
same,MIC,Staphylococcus aureus [3],4 µg/mL
same,MIC,[4],2.28 µM
same,zone of inhibition at 80 µg/mL,Pseudomonas aeruginosa [5],19 mm
same,inhibition at 20 µM,[6],-10.1%
same,MIC,Salmonella [7],16 µg/mL
same,zone of inhibition at 80 µg/mL,Escherichia coli [8],16 mm
same,inhibition of growth at 20 µM,[9],98.5%
same,IC50,[1],> 1000 nM
same,zone of inhibition at 80 µg/mL,Salmonella [10],19 mm
same,MIC,Pseudomonas aeruginosa [11],1 µg/mL
same,zone of inhibition at 80 µg/mL,Staphylococcus aureus [12],17 mm
Nc1nnn(CCC(=O)NC2CCN(c3c(F)cc4c(=O)c(C(=O)O)cn(C5CC5)c4c3Cl)C2)n1 (stereo unspecified),IC50,[1],> 1000 nM
Cc1cc(C)n(CC(=O)NC2CCN(c3c(F)cc4c(=O)c(C(=O)O)cn(C5CC5)c4c3Cl)C2)n1 (stereo unspecified),IC50,[1],> 1000 nM
O=C(CCn1ccnn1)NC1CCN(c2c(F)cc3c(=O)c(C(=O)O)cn(C4CC4)c3c2Cl)C1 (stereo unspecified),IC50,HeLa,> 20000 nM
same,MIC,[4],2.95 µM
same,zone of inhibition at 80 µg/mL,Pseudomonas aeruginosa [5],14 mm
same,inhibition at 20 µM,[6],-9.5%
same,diameter of the inhibition zone (DIZ),Escherichia coli [8],inactive
same,inhibition of growth at 20 µM,[9],96.9%
same,IC50,[1],> 1000 nM
same,diameter of the inhibition zone (DIZ),Salmonella [10],inactive
same,zone of inhibition at 80 µg/mL,Staphylococcus aureus [12],7 mm
O=C(Cn1cccn1)NC1CCN(c2c(F)cc3c(=O)c(C(=O)O)cn(C4CC4)c3c2Cl)C1 (stereo unspecified),IC50,[1],> 1000 nM
Nc1n[nH]c(SCC(=O)NC2CCN(c3c(F)cc4c(=O)c(C(=O)O)cn(C5CC5)c4c3Cl)C2)n1 (stereo unspecified),MIC,Escherichia coli [2],> 16 µg/mL
same,MIC,Staphylococcus aureus [3],16 µg/mL
same,IC50,HeLa,> 20000 nM
same,MIC,[4],0.72 µM
same,zone of inhibition at 80 µg/mL,Pseudomonas aeruginosa [5],16 mm
same,inhibition at 20 µM,[6],-7.2%
same,MIC,Salmonella [7],16 µg/mL
same,zone of inhibition at 80 µg/mL,Escherichia coli [8],14 mm
same,inhibition of growth at 20 µM,[9],98.2%
same,IC50,[1],> 1000 nM
same,zone of inhibition at 80 µg/mL,Salmonella [10],16 mm
same,MIC,Pseudomonas aeruginosa [11],8 µg/mL
same,zone of inhibition at 80 µg/mL,Staphylococcus aureus [12],16 mm
NC1CCN(c2c(F)cc3c(=O)c(C(=O)O)cn(C4CC4)c3c2Cl)C1 (stereo unspecified) [CLINAFLOXACIN],MIC,Escherichia coli [2],2 µg/mL
same,MIC,Staphylococcus aureus [3],1 µg/mL
same,zone of inhibition at 80 µg/mL,Pseudomonas aeruginosa [5],22 to 23 mm
same,MIC,Salmonella [7],1 µg/mL
same,zone of inhibition at 80 µg/mL,Escherichia coli [8],7 to 17 mm
same,zone of inhibition at 80 µg/mL,Salmonella [10],13 to 21 mm
same,MIC,Pseudomonas aeruginosa [11],0.125 µg/mL
same,zone of inhibition at 80 µg/mL,Staphylococcus aureus [12],22 mm
Cc1nnnn1CCC(=O)NC1CCN(c2c(F)cc3c(=O)c(C(=O)O)cn(C4CC4)c3c2Cl)C1 (stereo unspecified),IC50,[1],> 1000 nM
Cc1nccn1CC(=O)NC1CCN(c2c(F)cc3c(=O)c(C(=O)O)cn(C4CC4)c3c2Cl)C1 (stereo unspecified),IC50,[1],> 1000 nM
O=C(Cn1cncn1)NC1CCN(c2c(F)cc3c(=O)c(C(=O)O)cn(C4CC4)c3c2Cl)C1 (stereo unspecified),IC50,[1],> 1000 nM
O=C(Cn1ncnn1)NC1CCN(c2c(F)cc3c(=O)c(C(=O)O)cn(C4CC4)c3c2Cl)C1 (stereo unspecified),IC50,[1],> 1000 nM
Cc1cn(CC(=O)NC2CCN(c3c(F)cc4c(=O)c(C(=O)O)cn(C5CC5)c4c3Cl)C2)cn1 (stereo unspecified),IC50,[1],> 1000 nM
Cc1cn(CCC(=O)NC2CCN(c3c(F)cc4c(=O)c(C(=O)O)cn(C5CC5)c4c3Cl)C2)cn1 (stereo unspecified),IC50,[1],> 1000 nM
Nc1nnn(CC(=O)NC2CCN(c3c(F)cc4c(=O)c(C(=O)O)cn(C5CC5)c4c3Cl)C2)n1 (stereo unspecified),IC50,[1],> 1000 nM
